Experimental data: patent US10245261B2, “Substituted indol-5-ol derivatives and their therapeutic applications” (NantBioScience, Inc., priority 2013, dated 2019)

Experiments:
Test in all cases: KinaseProfiler kinase assay
Format in all cases: biochemical
Rsk1(h) = Rsk1(h) (Homo sapiens, UniProt Q15418)
Method in brief: (§1)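 Each enzyme was assayed radiometrically: 40 min room-temperature reaction with [γ-33P]ATP and 10 mM Mg acetate, acid-stopped, filtered, scintillation-counted.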

Axl(h) = Axl(h) (Homo sapiens, UniProt P30530)
Method in brief: as §1

GSK3β(h) = GSK3β(h) (Homo sapiens, UniProt P49841)
Method in brief: as §1

WNK2(h) = WNK2(h) (Homo sapiens, UniProt Q9Y3S1)
Method in brief: as §1

DYRK2(h) = DYRK2(h) (Homo sapiens, UniProt Q92630)
Method in brief: as §1

MLK1(h) = MLK1(h) (Homo sapiens, UniProt P80192)
Sequence of MLK1(h) (P80192 whole entry): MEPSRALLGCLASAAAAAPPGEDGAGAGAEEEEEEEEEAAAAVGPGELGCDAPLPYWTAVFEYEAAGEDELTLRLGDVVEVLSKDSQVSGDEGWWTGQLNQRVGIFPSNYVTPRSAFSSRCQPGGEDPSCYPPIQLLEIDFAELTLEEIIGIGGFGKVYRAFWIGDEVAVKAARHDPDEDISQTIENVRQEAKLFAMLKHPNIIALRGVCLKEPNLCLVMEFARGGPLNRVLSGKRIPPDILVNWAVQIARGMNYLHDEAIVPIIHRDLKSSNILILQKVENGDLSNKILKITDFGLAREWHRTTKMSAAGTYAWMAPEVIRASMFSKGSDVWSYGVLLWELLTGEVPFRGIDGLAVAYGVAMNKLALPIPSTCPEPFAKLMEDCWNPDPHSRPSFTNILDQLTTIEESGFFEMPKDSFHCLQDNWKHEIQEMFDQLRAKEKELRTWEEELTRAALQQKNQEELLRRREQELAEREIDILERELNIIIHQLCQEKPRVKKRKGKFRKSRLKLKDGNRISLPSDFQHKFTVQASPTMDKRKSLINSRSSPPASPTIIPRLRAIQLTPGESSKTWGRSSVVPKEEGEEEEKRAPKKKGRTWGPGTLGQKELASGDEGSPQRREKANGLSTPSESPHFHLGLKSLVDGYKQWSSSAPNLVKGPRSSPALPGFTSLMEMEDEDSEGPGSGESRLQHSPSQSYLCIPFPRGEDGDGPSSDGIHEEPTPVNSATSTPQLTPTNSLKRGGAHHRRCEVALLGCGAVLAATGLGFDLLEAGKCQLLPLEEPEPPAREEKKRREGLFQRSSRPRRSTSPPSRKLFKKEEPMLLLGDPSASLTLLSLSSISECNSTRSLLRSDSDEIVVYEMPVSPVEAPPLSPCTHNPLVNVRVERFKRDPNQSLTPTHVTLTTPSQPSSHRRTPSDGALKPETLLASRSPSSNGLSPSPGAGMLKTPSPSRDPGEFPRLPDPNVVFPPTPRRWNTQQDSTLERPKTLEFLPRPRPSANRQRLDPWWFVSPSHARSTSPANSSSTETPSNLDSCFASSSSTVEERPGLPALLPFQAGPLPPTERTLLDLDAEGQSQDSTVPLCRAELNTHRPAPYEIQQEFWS
Method in brief: as §1

MRCKβ(h) = MRCKβ(h) (Homo sapiens, UniProt Q9Y5S2)
Method in brief: as §1

Txk(h) = Txk(h) (Homo sapiens, UniProt P42681)
Sequence of Txk(h) (P42681 whole entry): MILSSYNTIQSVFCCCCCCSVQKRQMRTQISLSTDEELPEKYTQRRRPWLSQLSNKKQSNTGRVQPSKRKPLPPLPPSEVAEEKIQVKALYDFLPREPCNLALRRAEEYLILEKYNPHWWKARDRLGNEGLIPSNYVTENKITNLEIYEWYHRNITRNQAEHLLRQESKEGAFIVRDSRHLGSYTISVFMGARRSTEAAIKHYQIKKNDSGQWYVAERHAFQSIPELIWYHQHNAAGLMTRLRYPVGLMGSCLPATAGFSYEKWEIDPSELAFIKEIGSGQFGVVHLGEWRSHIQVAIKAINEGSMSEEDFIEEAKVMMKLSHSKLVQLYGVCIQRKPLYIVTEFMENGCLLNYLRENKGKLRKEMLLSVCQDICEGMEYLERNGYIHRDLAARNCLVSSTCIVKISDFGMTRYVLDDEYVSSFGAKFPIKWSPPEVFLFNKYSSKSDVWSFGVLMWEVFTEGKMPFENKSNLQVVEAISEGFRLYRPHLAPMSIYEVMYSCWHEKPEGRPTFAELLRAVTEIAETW
Method in brief: as §1

NEK11(h) = NEK11(h) (Homo sapiens, UniProt Q8NG66)
Method in brief: as §1

CHK2(I157T)(h) = CHK2(I157T)(h) (Homo sapiens, UniProt O96017, I157T)
Method in brief: as §1

HIPK3(h) = HIPK3(h) (Homo sapiens, UniProt Q9H422)
Method in brief: as §1

CHK2(h) = CHK2(h) (Homo sapiens, UniProt O96017)
Method in brief: as §1

NEK3(h) = NEK3(h) (Homo sapiens, UniProt P51956)
Sequence of NEK3(h) (P51956 whole entry): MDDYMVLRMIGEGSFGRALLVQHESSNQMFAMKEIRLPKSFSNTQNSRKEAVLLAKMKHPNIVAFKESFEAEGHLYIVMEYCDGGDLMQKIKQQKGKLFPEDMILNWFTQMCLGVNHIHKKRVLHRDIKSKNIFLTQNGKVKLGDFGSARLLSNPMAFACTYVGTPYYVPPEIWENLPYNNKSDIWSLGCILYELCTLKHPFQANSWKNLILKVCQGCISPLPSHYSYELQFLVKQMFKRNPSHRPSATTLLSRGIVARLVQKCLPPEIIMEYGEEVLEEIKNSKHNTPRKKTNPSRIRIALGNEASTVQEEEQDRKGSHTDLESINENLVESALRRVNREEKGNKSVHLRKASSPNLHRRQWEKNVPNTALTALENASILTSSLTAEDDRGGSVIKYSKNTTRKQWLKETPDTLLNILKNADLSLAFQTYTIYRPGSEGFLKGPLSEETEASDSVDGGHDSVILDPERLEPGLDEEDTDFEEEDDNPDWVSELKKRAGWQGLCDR
Method in brief: as §1

DAPK2(h) = DAPK2(h) (Homo sapiens, UniProt Q9UIK4)
Method in brief: as §1

EphB4(h) = EphB4(h) (Homo sapiens, UniProt P54760)
Method in brief: as §1

PKCβI(h) = PKCβI(h) (Homo sapiens, UniProt P05771)
Sequence of PKCβI(h) (P05771 whole entry): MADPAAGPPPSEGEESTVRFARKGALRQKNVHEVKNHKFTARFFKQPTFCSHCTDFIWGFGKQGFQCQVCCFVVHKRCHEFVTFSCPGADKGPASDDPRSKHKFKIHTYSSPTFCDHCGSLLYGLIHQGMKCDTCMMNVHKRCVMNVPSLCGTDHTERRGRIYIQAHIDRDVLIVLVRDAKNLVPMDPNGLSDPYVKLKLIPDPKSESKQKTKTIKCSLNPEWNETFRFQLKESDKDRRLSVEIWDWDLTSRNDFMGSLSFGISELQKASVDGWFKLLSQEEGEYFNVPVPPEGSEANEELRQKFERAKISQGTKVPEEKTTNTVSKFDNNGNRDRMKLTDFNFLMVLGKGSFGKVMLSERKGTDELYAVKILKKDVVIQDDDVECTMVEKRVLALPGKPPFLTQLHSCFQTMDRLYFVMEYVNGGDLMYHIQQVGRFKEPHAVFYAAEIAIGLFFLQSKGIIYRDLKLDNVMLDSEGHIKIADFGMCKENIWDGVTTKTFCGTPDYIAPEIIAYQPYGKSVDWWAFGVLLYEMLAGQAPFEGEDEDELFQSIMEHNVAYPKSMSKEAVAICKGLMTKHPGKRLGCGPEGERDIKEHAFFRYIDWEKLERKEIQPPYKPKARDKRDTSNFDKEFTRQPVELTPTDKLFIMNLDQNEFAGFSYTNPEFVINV
Method in brief: as §1

BrSK2(h) = BrSK2(h) (Homo sapiens, UniProt Q8IWQ3)
Method in brief: as §1

MSK1(h) = MSK1(h) (Homo sapiens, UniProt O75582)
Method in brief: as §1

Haspin(h) = Haspin(h) (Homo sapiens, UniProt Q8TF76)
Method in brief: as §1

Rsk4(h) = Rsk4(h) (Homo sapiens, UniProt Q9UK32)
Method in brief: as §1

CaMKIδ(h) = CaMKIδ(h) (Homo sapiens, UniProt Q8IU85)
Method in brief: as §1

CHK1(h) = CHK1(h) (Homo sapiens, UniProt O14757)
Method in brief: as §1

NEK2(h) = NEK2(h) (Homo sapiens, UniProt P51955)
Sequence of NEK2(h) (P51955 whole entry): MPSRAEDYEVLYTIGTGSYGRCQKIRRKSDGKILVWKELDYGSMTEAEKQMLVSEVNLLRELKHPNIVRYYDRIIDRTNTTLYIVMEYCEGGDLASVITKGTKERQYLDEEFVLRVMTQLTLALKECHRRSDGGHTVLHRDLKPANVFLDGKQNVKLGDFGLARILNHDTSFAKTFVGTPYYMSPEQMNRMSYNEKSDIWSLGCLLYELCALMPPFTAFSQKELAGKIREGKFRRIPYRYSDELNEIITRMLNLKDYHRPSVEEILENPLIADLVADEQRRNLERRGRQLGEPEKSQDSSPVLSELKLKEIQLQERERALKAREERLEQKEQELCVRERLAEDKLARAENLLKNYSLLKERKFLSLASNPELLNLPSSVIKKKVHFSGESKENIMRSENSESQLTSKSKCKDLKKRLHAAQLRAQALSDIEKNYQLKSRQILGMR
Method in brief: as §1

JNK1α1(h) = JNK1α1(h) (Homo sapiens, UniProt P45983)
Method in brief: as §1

PKCμ(h) = PKCμ(h) (Homo sapiens, UniProt Q15139)
Method in brief: as §1

CK2α2(h) = CK2α2(h) (Homo sapiens, UniProt P19784)
Method in brief: as §1

ULK3(h) = ULK3(h) (Homo sapiens, UniProt Q6PHR2)
Method in brief: as §1

IRR(h) = IRR(h) (Homo sapiens, UniProt P14616)
Method in brief: as §1

MRCKα(h) = MRCKα(h) (Homo sapiens, UniProt Q5VT25)
Sequence of MRCKα(h) (Q5VT25 whole entry): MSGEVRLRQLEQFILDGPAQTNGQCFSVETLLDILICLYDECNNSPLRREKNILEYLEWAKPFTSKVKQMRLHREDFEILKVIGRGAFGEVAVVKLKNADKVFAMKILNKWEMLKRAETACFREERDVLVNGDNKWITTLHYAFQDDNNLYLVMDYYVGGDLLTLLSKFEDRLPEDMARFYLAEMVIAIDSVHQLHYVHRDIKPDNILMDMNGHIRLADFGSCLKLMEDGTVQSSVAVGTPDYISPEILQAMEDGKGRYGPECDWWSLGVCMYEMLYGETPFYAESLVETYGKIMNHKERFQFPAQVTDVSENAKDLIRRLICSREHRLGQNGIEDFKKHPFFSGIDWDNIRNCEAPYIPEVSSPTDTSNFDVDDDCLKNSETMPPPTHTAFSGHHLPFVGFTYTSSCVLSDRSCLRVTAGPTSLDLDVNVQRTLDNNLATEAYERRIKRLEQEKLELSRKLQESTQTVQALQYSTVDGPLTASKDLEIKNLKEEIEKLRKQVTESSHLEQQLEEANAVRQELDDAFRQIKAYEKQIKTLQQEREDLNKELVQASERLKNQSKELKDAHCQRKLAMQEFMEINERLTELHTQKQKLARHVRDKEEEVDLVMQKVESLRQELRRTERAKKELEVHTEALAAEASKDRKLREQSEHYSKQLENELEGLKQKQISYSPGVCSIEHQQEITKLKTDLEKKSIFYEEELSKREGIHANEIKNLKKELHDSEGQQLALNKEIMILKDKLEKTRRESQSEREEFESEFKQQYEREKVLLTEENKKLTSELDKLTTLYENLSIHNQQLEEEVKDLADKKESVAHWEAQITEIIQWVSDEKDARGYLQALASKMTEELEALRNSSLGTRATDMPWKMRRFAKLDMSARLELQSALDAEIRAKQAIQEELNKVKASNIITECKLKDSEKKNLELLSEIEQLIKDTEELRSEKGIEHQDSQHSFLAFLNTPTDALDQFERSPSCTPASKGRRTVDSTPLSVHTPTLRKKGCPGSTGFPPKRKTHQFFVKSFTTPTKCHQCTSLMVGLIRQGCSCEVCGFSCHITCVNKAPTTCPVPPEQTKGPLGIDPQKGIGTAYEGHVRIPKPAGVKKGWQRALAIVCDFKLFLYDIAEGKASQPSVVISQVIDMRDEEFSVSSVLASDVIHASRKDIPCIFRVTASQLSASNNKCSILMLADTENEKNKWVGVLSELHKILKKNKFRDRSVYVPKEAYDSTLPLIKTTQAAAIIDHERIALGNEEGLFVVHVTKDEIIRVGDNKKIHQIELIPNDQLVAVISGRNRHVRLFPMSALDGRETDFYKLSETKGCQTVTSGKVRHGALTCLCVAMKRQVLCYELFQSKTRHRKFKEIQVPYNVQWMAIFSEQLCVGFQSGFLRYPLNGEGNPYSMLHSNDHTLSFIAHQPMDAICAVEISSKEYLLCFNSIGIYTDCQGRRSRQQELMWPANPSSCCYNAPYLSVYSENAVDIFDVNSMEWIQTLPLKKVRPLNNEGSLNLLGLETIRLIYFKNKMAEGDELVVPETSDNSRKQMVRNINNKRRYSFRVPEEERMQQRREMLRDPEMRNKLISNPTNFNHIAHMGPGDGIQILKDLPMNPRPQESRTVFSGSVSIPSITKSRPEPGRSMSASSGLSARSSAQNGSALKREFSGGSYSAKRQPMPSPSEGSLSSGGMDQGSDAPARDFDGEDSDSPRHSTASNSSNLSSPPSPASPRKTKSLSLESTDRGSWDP
Method in brief: as §1

EGFR(T790M, L858R)(h) = EGFR(T790M, L858R)(h) (Homo sapiens, UniProt P00533, L858R/T790M)
Method in brief: as §1

CSK(h) = CSK(h) (Homo sapiens, UniProt P41240)
Method in brief: as §1

EphB3(h) = EphB3(h) (Homo sapiens, UniProt P54753)
Method in brief: as §1

Compound | inhibition at 0.1 µM (Rsk1(h)) | inhibition at 0.1 µM (Axl(h)) | inhibition at 0.1 µM (GSK3β(h)) | inhibition at 0.1 µM (WNK2(h)) | inhibition at 0.1 µM (DYRK2(h)) | inhibition at 0.1 µM (MLK1(h)) | inhibition at 0.1 µM (MRCKβ(h)) | inhibition at 0.1 µM (Txk(h)) | inhibition at 0.1 µM (NEK11(h)) | inhibition at 0.1 µM (CHK2(I157T)(h)) | inhibition at 0.1 µM (HIPK3(h)) | inhibition at 0.1 µM (CHK2(h)) | inhibition at 0.1 µM (NEK3(h)) | inhibition at 0.1 µM (DAPK2(h)) | inhibition at 0.1 µM (EphB4(h)) | inhibition at 0.1 µM (PKCβI(h)) | inhibition at 0.1 µM (BrSK2(h)) | inhibition at 0.1 µM (MSK1(h)) | inhibition at 0.1 µM (Haspin(h)) | inhibition at 0.1 µM (Rsk4(h)) | also measured
Cc1cc2c(F)c(Oc3nc(Nc4cc(C5CC5)[nH]n4)cc(N4CCN(C)CC4)n3)ccc2[nH]1 [Compound 10] | -10% | 70% | -15% | -8% | -6% | 84% | -6% | 75% | -8% | 30% | -1% | 11% | 18% | -16% | 85% | 2% | 60% | 96% | 0% | 36% | inhibition at 0.1 µM (CaMKIδ(h)): 6%; inhibition at 0.1 µM (CHK1(h)): 16%; inhibition at 0.1 µM (NEK2(h)): 6%; inhibition at 0.1 µM (JNK1α1(h)): -7%; inhibition at 0.1 µM (PKCμ(h)): 7%; inhibition at 0.1 µM (CK2α2(h)): -13%; inhibition at 0.1 µM (ULK3(h)): 86%; inhibition at 0.1 µM (IRR(h)): 91%; inhibition at 0.1 µM (MRCKα(h)): 2%; inhibition at 0.1 µM (EGFR(T790M, L858R)(h)): 53%; inhibition at 0.1 µM (CSK(h)): 12%; inhibition at 0.1 µM (EphB3(h)): -8%
Cc1cc2c(F)c(Oc3nc(Nc4cc(C5CC5)[nH]n4)cc(N4CCNCC4)n3)ccc2[nH]1 [Compound 11, N-(5-cyclopropyl-1H-pyrazol-3-yl)-2-((4-fluoro-2-methyl-1H-indol-5-yl)oxy)-6-(piperazin-1-yl)pyrimidin-4-amine] | 9% | 62% | 19% | -6% | -1% | 86% | -16% | 87% | -6% | -1% | -3% | 4% | 16% | -6% | 85% | 5% | 48% | 9% | -11% | 35% | inhibition at 0.1 µM (CaMKIδ(h)): 5%; inhibition at 0.1 µM (CHK1(h)): 0%; inhibition at 0.1 µM (NEK2(h)): -7%; inhibition at 0.1 µM (JNK1α1(h)): 11%; inhibition at 0.1 µM (PKCμ(h)): -7%; inhibition at 0.1 µM (CK2α2(h)): 8%; inhibition at 0.1 µM (ULK3(h)): 84%; inhibition at 0.1 µM (IRR(h)): 95%; inhibition at 0.1 µM (MRCKα(h)): -3%; inhibition at 0.1 µM (EGFR(T790M, L858R)(h)): 69%; inhibition at 0.1 µM (CSK(h)): 5%; inhibition at 0.1 µM (EphB3(h)): -18%
